Laboratory results: patent US20150315188A1, “COMPOUNDS AND METHODS FOR TREATMENT OF HYPERTENSION” (MEDIVATION TECHNOLOGIES, INC., priority 2012, published 2015)
Read-outs that look alike come from different tables or passages of the source.

Legend:
Set-up in all cases: purchased Milipore (Millipore)
[1] = biological target: T1, Human adrenergic α2A receptor (Homo sapiens, UniProt P08913); assay: Radioligand binding, adrenergic α2A (Protocol Group B); details: Protocol Group B; for Percentage inhibition of ligand binding, Adrenergic α2A (0.1 μM) / inhibition at 0.1 µM: 0.1 μM compound; for Percentage inhibition of ligand binding, Adrenergic α2A (0.3 μM) / inhibition at 0.3 µM: 0.3 μM compound; for inhibition at 0.1 µM: read-out: Percentage inhibition of ligand binding, Adrenergic α2A (0.1 μM); for inhibition at 0.3 µM: read-out: Percentage inhibition of ligand binding, Adrenergic α2A (0.3 μM)
T1 sequence (P08913 1-465): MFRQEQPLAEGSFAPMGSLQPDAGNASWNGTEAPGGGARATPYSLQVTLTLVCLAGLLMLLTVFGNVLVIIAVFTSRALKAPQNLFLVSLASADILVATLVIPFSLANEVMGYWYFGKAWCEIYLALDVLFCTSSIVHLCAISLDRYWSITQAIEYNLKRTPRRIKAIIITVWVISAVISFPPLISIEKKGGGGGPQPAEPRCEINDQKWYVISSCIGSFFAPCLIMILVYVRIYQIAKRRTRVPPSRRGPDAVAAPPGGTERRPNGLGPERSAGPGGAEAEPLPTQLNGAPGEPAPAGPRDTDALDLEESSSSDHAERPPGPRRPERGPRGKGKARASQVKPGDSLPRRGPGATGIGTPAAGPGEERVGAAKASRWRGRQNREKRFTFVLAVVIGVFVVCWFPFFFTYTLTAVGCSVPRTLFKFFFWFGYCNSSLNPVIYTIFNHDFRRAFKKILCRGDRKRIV
Procedure, shortened: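 Compounds (1% DMSO vehicle, various concentrations) competed against 2 nM [^3H]MK-912 on recombinant receptor membranes for 60 min at 25° C, Tris-HCl pH 7.4 buffer with Mg2+, Ca2+, BSA. Bound radioligand filtered and counted; 10 μM rauwolscine set nonspecific binding. Values: percent inhibition of specific binding or estimated Ki.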

[2] = biological target: T2, Human adrenergic α1B receptor (Homo sapiens, UniProt P35368); assay: Radioligand binding, adrenergic α1B (Protocol Group B); details: Protocol Group B; for Percentage inhibition of ligand binding, Adrenergic α1B (0.1 μM) / inhibition at 0.1 µM: 0.1 μM compound; for Percentage inhibition of ligand binding, Adrenergic α1B (0.3 μM) / inhibition at 0.3 µM: 0.3 μM compound; for inhibition at 0.1 µM: read-out: Percentage inhibition of ligand binding, Adrenergic α1B (0.1 μM); for inhibition at 0.3 µM: read-out: Percentage inhibition of ligand binding, Adrenergic α1B (0.3 μM)
T2 sequence (P35368 1-520): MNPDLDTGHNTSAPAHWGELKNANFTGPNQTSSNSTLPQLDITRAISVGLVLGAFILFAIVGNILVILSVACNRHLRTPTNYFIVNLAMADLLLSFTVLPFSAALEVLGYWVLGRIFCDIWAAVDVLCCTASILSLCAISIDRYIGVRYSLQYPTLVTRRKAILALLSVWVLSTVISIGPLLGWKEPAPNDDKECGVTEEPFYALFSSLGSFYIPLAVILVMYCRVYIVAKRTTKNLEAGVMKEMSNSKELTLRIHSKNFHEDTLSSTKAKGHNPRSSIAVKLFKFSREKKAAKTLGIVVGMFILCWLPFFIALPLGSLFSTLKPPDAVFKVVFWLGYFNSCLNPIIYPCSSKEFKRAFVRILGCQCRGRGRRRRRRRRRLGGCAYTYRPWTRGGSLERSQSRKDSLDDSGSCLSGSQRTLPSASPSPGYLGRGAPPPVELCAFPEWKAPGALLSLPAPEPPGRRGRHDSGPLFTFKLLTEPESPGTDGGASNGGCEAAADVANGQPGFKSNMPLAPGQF
Procedure, shortened: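 Values are percent inhibition of specific [3H]prazosin (0.3 nM) binding or estimated Ki, from filtration counting. Human α1B recombinant membranes, Tris-HCl pH 7.4 buffer with MgCl2 and EDTA, 60 min at 25 °C, 1% DMSO vehicle; 10 μM prazosin defined nonspecific binding.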

[3] = biological target: T3, Human adrenergic α2B receptor (Homo sapiens, UniProt P18089); assay: Radioligand binding, adrenergic α2B (Protocol Group B); details: Protocol Group B; for Percentage inhibition of ligand binding, Adrenergic α2B (10 nM): 0.01 µM; for Percentage inhibition of ligand binding, Adrenergic α2B (30 nM): 0.03 µM
T3 sequence (P18089 1-450): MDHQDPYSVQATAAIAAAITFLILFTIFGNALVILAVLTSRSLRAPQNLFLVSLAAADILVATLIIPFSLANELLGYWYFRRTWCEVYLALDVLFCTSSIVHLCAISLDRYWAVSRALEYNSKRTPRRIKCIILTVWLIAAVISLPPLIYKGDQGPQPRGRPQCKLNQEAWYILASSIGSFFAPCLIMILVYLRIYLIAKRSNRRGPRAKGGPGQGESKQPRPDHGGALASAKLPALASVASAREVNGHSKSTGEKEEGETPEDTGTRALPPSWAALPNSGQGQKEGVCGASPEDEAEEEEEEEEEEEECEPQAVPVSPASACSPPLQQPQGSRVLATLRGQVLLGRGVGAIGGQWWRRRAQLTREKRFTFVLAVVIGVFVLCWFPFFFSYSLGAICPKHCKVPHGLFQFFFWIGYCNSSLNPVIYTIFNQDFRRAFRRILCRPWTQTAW
Procedure, shortened: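 Compounds at various concentrations in 1% DMSO were tested on recombinant membranes in Tris-HCl pH 7.4 buffer containing MgCl2, CaCl2 and 0.2% BSA.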

[4] = 10 nM compound, read-out: Percentage inhibition of ligand binding, Adrenergic α2B (10 nM)
[5] = 30 nM compound, read-out: Percentage inhibition of ligand binding, Adrenergic α2B (30 nM)
[6] = 0.1 μM compound, read-out: Percentage inhibition of ligand binding, Adrenergic α2B (0.1 μM)

Row | SMILES | Percentage inhibition of ligand binding, Adrenergic α2A (0.1 μM) [1] [%] | Percentage inhibition of ligand binding, Adrenergic α2A (0.3 μM) [1] [%] | Percentage inhibition of ligand binding, Adrenergic α1B (0.1 μM) [2] [%] | Percentage inhibition of ligand binding, Adrenergic α1B (0.3 μM) [2] [%] | Percentage inhibition of ligand binding, Adrenergic α2B (10 nM) ([3]; 10 nM compound) [%] | Percentage inhibition of ligand binding, Adrenergic α2B (30 nM) ([3]; 30 nM compound) [%] | inhibition at 0.1 µM [1] [%] | inhibition at 0.3 µM [1] [%] | other results
1 | Cc1cc(F)cc2c3c(n(CC(C)(O)c4ccncc4)c12)CC1CCCN1C3 (single isomer, unassigned) [78a] | −11 | −7 | 2 | 12 | −1 | −1 | – | – | Percentage inhibition of ligand binding, Adrenergic α2B (0.1 μM) ([3]; 0.1 μM compound): 5%
2 | Cc1ccc2c(c1)c1c(n2CC(O)c2cccnc2)C(O)CN(C)C1 (stereo not drawn) [compound 24, 5-(2-Hydroxy-2-pyridin-3-yl-ethyl)-2,8-dimethyl-2,3,4,5-tetrahydro-1H-pyrido[4,3-b]indol-4-ol] | – | – | – | – | – | – | -15 | 4 | inhibition at 0.1 µM [2]: -3%; inhibition at 0.3 µM [2]: 15%; inhibition at 0.01 µM [3, 4]: -25%; inhibition at 0.03 µM [3, 5]: 0%; inhibition at 0.1 µM [3, 6]: 29%
3 | Cc1ccc2c(c1)c1c(n2CC(O)c2cccnc2)CC2CCCN2C1 (single isomer, unassigned) [27a] | 3 | – | 0 | 15 | 6 | 10 | – | 20 | Percentage inhibition of ligand binding, Adrenergic α2B (0.1 μM) ([3]; 0.1 μM compound): 33%
4 | Cc1cc(F)cc2c3c(n(CC(C)(O)c4ccncc4)c12)CC1CCCN1C3 (single isomer, unassigned) [78d] | 2 | −4 | 1 | 7 | 1 | −3 | – | – | –
5 | Cc1ccc2c(c1)c1c(n2CC(C)(O)c2cccnc2)CC2CCC1N2C (single isomer, unassigned) [101a] | – | – | – | – | – | – | 7 | 21 | inhibition at 0.1 µM [2]: 6%; inhibition at 0.3 µM [2]: 17%; Ki ([3]; Ki α2B, estimated Ki): 16.2 nM; inhibition at 0.01 µM ([3]; read-out: Percentage inhibition of ligand binding, Adrenergic α2B (10 nM), 10 nM compound): 23%; inhibition at 0.03 µM ([3]; read-out: Percentage inhibition of ligand binding, Adrenergic α2B (30 nM), 30 nM compound): 38%; inhibition at 0.1 µM ([3]; read-out: Percentage inhibition of ligand binding, Adrenergic α2B (0.1 μM), 0.1 μM compound): 71%
6 | Cc1cc(F)c2c(c1)c1c(n2CC(C)(O)c2cccnc2)CCN2CCCC12 (single isomer, unassigned) [79c] | −3 | −1 | 1 | 6 | −6 | 7 | – | – | –
7 | Cc1cc(Cl)c2c(c1)c1c(n2CC(O)c2ccncc2)CCN2CCCC12 (single isomer, unassigned) [142b] | 95 | – | 76 | – | – | 100 | – | – | –
8 | Cc1ccc2c(c1)c1c(n2CC(O)c2ccc(C(=O)N(C)C)nc2)CCN(C)C1 (stereo not drawn) [compound 54, 5-(2-(2,8-dimethyl-3,4-dihydro-1H-pyrido[4,3-b]indol-5(2H)-yl)-1-hydroxyethyl)-N,N-dimethylpicolinamide] | – | – | – | – | – | – | -8 | -3 | inhibition at 0.1 µM [2]: -5%; inhibition at 0.3 µM [2]: 8%; inhibition at 0.01 µM [3, 4]: 15%; inhibition at 0.03 µM [3, 5]: 43%; inhibition at 0.1 µM [3, 6]: 66%
9 | Cc1cc(C)c2c(c1)c1c(n2CC(O)C2CCCCC2)CCN2CCCC12 (stereo not drawn) [141b] | 81 | – | 57 | – | – | 92 | – | – | –
10 | CC(O)(Cn1c2c(c3cc(F)ccc31)C1CCCN1CC2)c1ccncc1 (single isomer, unassigned) [31d] | −11 | 6 | 0 | 11 | 4 | −11 | – | – | Percentage inhibition of ligand binding, Adrenergic α2B (0.1 μM) ([3]; 0.1 μM compound): 17%
11 | CN1CCc2c(c3cc(CCO)ccc3n2CC(C)(O)c2cccnc2)C1 (single isomer, unassigned) [139a] | 7 | – | 9 | – | – | 31 | – | – | –
12 | Cc1cc(F)cc2c3c(n(CC(C)(O)c4ccncc4)c12)CCN1CCCC31 (single isomer, unassigned) [77a] | – | 19 | 7 | 32 | – | 30 | 3 | – | inhibition at 0.01 µM [3, 4]: 12%
13 | Cc1cc(F)cc2c3c(n(CC(C)(O)c4ccncc4)c12)CC1CCCN1C3 (single isomer, unassigned) [78c] | 3 | −1 | −11 | −2 | 20 | 33 | – | – | –
14 | Cc1ccc2c(c1)c1c(n2CC(O)c2ccncc2)CN(C)C2CCCC12 (single isomer, unassigned) [36a] | −16 | – | −2 | 12 | 8 | −5 | – | -5 | Percentage inhibition of ligand binding, Adrenergic α2B (0.1 μM) ([3]; 0.1 μM compound): −3%
15 | OCc1ccc2c(c1)c1c(n2CC(O)c2ccncc2)CCN2CCCC12 (stereo not drawn) [compound 29] | – | – | – | – | – | – | 20 | 49 | inhibition at 0.1 µM [2]: 15%; inhibition at 0.3 µM [2]: 46%; inhibition at 0.01 µM [3, 4]: 31%; inhibition at 0.03 µM [3, 5]: 66%; inhibition at 0.1 µM [3, 6]: 80%
